From PubChem BioAssay (NCI)
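Protocol summary: plate cells (96-well), add compound at 5 concentrations, incubate 48 h, interpolate endpoints linearly. Definition used: TGI = concentration required for complete inhibition of growth.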

Tests used:
Assay in all cases: NCI anticancer screen, dose series, 48 h
NCI-H226 lung = test system: NCI-H226 lung
UO-31 renal = test system: UO-31 renal
MDA-N = test system: MDA-N
TK-10 renal = test system: TK-10 renal
MCF7 breast = test system: MCF7 breast
A549 NSCLC = test system: A549 NSCLC
786-0 renal = test system: 786-0 renal
OVCAR-5 ovarian = test system: OVCAR-5 ovarian
MDA-MB-231 breast = test system: MDA-MB-231 breast
OVCAR-8 ovarian = test system: OVCAR-8 ovarian
CAKI-1 renal = test system: CAKI-1 renal
EKVX NSCLC = test system: EKVX NSCLC
CCRF-CEM leukemia = test system: CCRF-CEM leukemia
SNB-19 CNS = test system: SNB-19 CNS
PC-3 prostate = test system: PC-3 prostate
HCT-116 colon = test system: HCT-116 colon
SNB-75 CNS = test system: SNB-75 CNS
LOX IMVI melanoma = test system: LOX IMVI melanoma
SF-268 CNS = test system: SF-268 CNS
SK-OV-3 ovarian = test system: SK-OV-3 ovarian
NCI-H23 lung = test system: NCI-H23 lung
SW-620 colon = test system: SW-620 colon
ACHN renal = test system: ACHN renal
HL-60(TB) leukemia = test system: HL-60(TB) leukemia
KM12 colon = test system: KM12 colon
SF-539 CNS = test system: SF-539 CNS
K-562 leukemia = test system: K-562 leukemia
BT-549 breast = test system: BT-549 breast
HOP-62 NSCLC = test system: HOP-62 NSCLC
SF-295 CNS = test system: SF-295 CNS
SR leukemia = test system: SR leukemia
U251 CNS = test system: U251 CNS
OVCAR-3 ovarian = test system: OVCAR-3 ovarian
M14 melanoma = test system: M14 melanoma
DU-145 prostate = test system: DU-145 prostate
HT29 colon = test system: HT29 colon
UACC-62 melanoma = test system: UACC-62 melanoma
IGROV1 ovarian = test system: IGROV1 ovarian
MALME-3M melanoma = test system: MALME-3M melanoma
UACC-257 melanoma = test system: UACC-257 melanoma
HCC-2998 colon = test system: HCC-2998 colon
MOLT-4 leukemia = test system: MOLT-4 leukemia
NCI/ADR-RES ovarian = test system: NCI/ADR-RES ovarian
SN12C renal = test system: SN12C renal
RPMI-8226 leukemia = test system: RPMI-8226 leukemia
MDA-MB-435 = test system: MDA-MB-435
T-47D breast = test system: T-47D breast
SK-MEL-5 melanoma = test system: SK-MEL-5 melanoma
HCT-15 colon = test system: HCT-15 colon
SK-MEL-28 melanoma = test system: SK-MEL-28 melanoma
NCI-H522 lung = test system: NCI-H522 lung
COLO 205 colon = test system: COLO 205 colon

Compound: CCC(C)N1CN(c2ccccc2)C2(CCN(CCCSc3ccc(F)cc3)CC2)C1=O (configuration not stated)
- TGI (NCI-H226 lung): 17 µM
- TGI (UO-31 renal): 6.61 µM
- TGI (MDA-N): 10.7 µM
- TGI (TK-10 renal): 11.2 µM
- TGI (MCF7 breast): 11.1 µM
- TGI (A549 NSCLC): 15.1 µM
- TGI (786-0 renal): 7.88 µM
- TGI (OVCAR-5 ovarian): 7.06 µM
- TGI (MDA-MB-231 breast): 1.1 µM
- TGI (OVCAR-8 ovarian): 21.5 µM
- TGI (CAKI-1 renal): 11 µM
- TGI (EKVX NSCLC): 10.4 µM
- TGI (CCRF-CEM leukemia): 7.22 µM
- TGI (SNB-19 CNS): 19.7 µM
- TGI (PC-3 prostate): 19.4 µM
- TGI (HCT-116 colon): 10.1 µM
- TGI (SNB-75 CNS): 25 µM
- TGI (LOX IMVI melanoma): 8.35 µM
- TGI (SF-268 CNS): 23.7 µM
- TGI (SK-OV-3 ovarian): 19.1 µM
- TGI (NCI-H23 lung): 16 µM
- TGI (SW-620 colon): 17.3 µM
- TGI (ACHN renal): 9.76 µM
- TGI (HL-60(TB) leukemia): 17.8 µM
- TGI (KM12 colon): 15.2 µM
- TGI (SF-539 CNS): 6.32 µM
- TGI (K-562 leukemia): 6.26 µM
- TGI (BT-549 breast): 6.99 µM
- TGI (HOP-62 NSCLC): 4.74 µM
- TGI (SF-295 CNS): 5.57 µM
- TGI (SR leukemia): 46.7 µM
- TGI (U251 CNS): 13.7 µM
- TGI (OVCAR-3 ovarian): 7.25 µM
- TGI (M14 melanoma): 7.08 µM
- TGI (DU-145 prostate): 10.1 µM
- TGI (HT29 colon): 8.3 µM
- TGI (UACC-62 melanoma): 17.5 µM
- TGI (IGROV1 ovarian): 14.2 µM
- TGI (MALME-3M melanoma): 15.8 µM
- TGI (UACC-257 melanoma): 7.37 µM
- TGI (HCC-2998 colon): 4.22 µM
- TGI (MOLT-4 leukemia): 13.3 µM
- TGI (NCI/ADR-RES ovarian): 11 µM
- TGI (SN12C renal): > 100 µM
- TGI (RPMI-8226 leukemia): 5.72 µM
- TGI (MDA-MB-435): 11.7 µM
- TGI (T-47D breast): 10.2 µM
- TGI (SK-MEL-5 melanoma): 4.62 µM
- TGI (HCT-15 colon): 4.2 µM
- TGI (SK-MEL-28 melanoma): 23.8 µM
- TGI (NCI-H522 lung): 18.9 µM
- TGI (COLO 205 colon): 3.47 µM
